The values below come from patent US12582650B2, “IRAK4 kinase inhibitor and preparation method therefor” (ZHUHAI YUFAN BIOTECHNOLOGIES CO., LTD, priority 2019, dated 2026).

The target in the assay is T1, IRAK4 (Homo sapiens, UniProt Q9NWZ3).
T1 construct: purchased Carna 09-145
T1 sequence (Q9NWZ3 1-460): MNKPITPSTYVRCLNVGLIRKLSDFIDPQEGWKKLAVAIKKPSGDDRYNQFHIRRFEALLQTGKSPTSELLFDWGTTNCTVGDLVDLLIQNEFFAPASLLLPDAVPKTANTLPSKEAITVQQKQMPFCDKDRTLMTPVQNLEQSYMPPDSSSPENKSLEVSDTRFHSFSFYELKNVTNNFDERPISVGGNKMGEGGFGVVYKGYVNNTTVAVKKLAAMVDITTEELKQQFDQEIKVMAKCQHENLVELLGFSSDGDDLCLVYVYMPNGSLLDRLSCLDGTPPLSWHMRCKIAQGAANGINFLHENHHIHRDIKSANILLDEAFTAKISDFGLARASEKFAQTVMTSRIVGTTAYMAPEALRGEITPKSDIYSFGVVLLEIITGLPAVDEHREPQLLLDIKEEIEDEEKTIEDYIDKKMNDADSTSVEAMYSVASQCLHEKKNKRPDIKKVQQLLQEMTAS
Briefly: Enzymatic experiment for IRAK4 kinase inhibitor (HTRF KinEASE-STK, phosphorylation of STK1). The format is biochemical. The note with it: 6 nM IRAK4, 0.4 uM STK1, 80 uM ATP, 37° C. for 90 min, read-out: Relative IC50. On the procedure:
Experimental materials: IRAK4 recombinant human […], purchased from Carna (Cat #09-145); ATP, purchased from Sigma (Cat #A7699-5G); Compound 26, purchased from Merck Millipore (Cat #531237); and HTRF KinEASE-STK Si kit, purchased from Cisbio (Cat #62ST1PEC).
Experimental method: Phosphorylation of STK1 can be detected using an HTRF assay kit. The experimental reaction was carried out in a 384-well plate (Greiner, Cat #784075) with a total reaction system of 20 uL. The reaction system mainly comprised 1× kinase buffer, […], […], 0.4 uM STK1 and 80 uM ATP. The target product prepared in Example 1 was serially diluted with DMSO at 10 concentration points, and transferred to an experimental assay plate at 100 nL. The reaction was started after 6 nM IRAK4 was added and stopped by adding a detection reagent (0.25×STK Antibody-Cryptate, 25 nM Streptavidin-XL665) after being in process at 37° C. for 90 min. After standing at room temperature for 60 min, an FRET signal was read on a Spark 10M or envision plate reader. (HTRF 665/615=signal value at 665 nm/signal value at 615 nm).
Data analysis: signal ratio (665/615) was converted to a percent rejection. Inhibition %=(max−sample)/(max−min)×100. “min” represents a ratio of signal values (665/615) for control well without enzyme, and “max” represents a ratio of signal values (665/615) for control well with […]. […] values for compounds were calculated by XLFit in the Excel. Y=Bottom+(Top−Bottom)/(1+(IC50/X)^HillSlope) Equation: […]
In general terms: TR-FRET usually uses a lanthanide donor and a delayed reading to cut background.
By IC50 is commonly meant the concentration that inhibits the measured activity by half. For `CN(C)C1CCC(c2cn3c(cnc4[nH]cc(C5CCOCC5)c43)n2)CC1` (centres unmarked), the IC50 is less than 100 nM.

For `CC1CNCCC1c1cn2c(cnc3[nH]cc(C4CCOCC4)c32)n1` (centres unmarked), the IC50 is less than 100 nM.

For the molecule `c1[nH]c2ncc3nc(C4CCCNC4)cn3c2c1C1CCOCC1` (centres unmarked), the IC50 is less than 100 nM.

For `NC1CCC(c2nc3c(cnc4[nH]cc(C5CCOCC5)c43)[nH]2)CC1` (centres unmarked) [drawing 311], the IC50 is less than 100 nM.

Consider `c1[nH]c2ncc3nc(C4CCOCC4)cn3c2c1C1CCOCC1`, for which the IC50 is 100 to 1000 nM.

Take `CN1CCC(c2cn3c(cnc4[nH]cc(C5CCOCC5)c43)n2)CC1`: the IC50 lay within 100 to 1000 nM.

For the molecule `NC1CCC(c2cn3c(cnc4[nH]cc(C5CCOCC5)c43)n2)CC1` (centres unmarked), the IC50 is less than 100 nM.

As to `c1[nH]c2ncc3[nH]c(C4CCCCC4)nc3c2c1C1CCOCC1`, the IC50 lay in the range of 100 to 1000 nM.

On to `NC1CCC(c2nc3c(cnc4[nH]cc(C5CCOCC5)c43)[nH]2)CC1` (centres unmarked) [drawing 312], for which the IC50 is less than 100 nM.

In the case of `c1[nH]c2ncc3nc(C4CCC(N5CCOCC5)CC4)cn3c2c1C1CCOCC1` (centres unmarked), the IC50 was in the range of 100 to 1000 nM.

Consider `CC1CC(c2cn3c(cnc4[nH]cc(C5CCOCC5)c43)n2)CCN1` (centres unmarked), for which the IC50 lay in the range of 100 to 1000 nM.

Consider `Cn1c(C2CCCCC2)nc2c3c(C4CCOCC4)c[nH]c3ncc21`, for which the IC50 was in the range of 100 to 1000 nM.

As for `CN1CCC(c2cn3c(cnc4[nH]cc(C5CCC(C(N)=O)CC5)c43)n2)CC1` (centres unmarked), the half-inhibitory concentration (IC50) is more than 1000 nM.

In the case of `c1[nH]c2ncc3nc(C4CCNCC4)cn3c2c1C1CCOCC1`, the IC50 is less than 100 nM.

With `CCN1CCC(c2cn3c(cnc4[nH]cc(C5CCOCC5)c43)n2)CC1`, the half-inhibitory concentration (IC50) was 100 to 1000 nM.

Take `CN1CCC(c2cn3c(cnc4[nH]cc(C5CCOCC5)c43)n2)C1` (centres unmarked): the IC50 is 100 to 1000 nM.

Take `c1[nH]c2ncc3nc(C4CCCCC4)cn3c2c1C1CCOCC1`: the IC50 was less than 100 nM.

`c1[nH]c2ncc3nc(C4CCC5(CC4)CNC5)cn3c2c1C1CCOCC1`: the half-maximal inhibitory concentration (IC50) was less than 100 nM.

Take `c1[nH]c2ncc3nc(C4CCN(C5COC5)CC4)cn3c2c1C1CCOCC1`: the IC50 was more than 1000 nM.

In the case of `CC(=O)N1CCC(c2cn3c(cnc4[nH]cc(C5CCOCC5)c43)n2)CC1`, the IC50 is more than 1000 nM.
